Data reported in patent publication US20100143995A1, “Process for Fermentive Preparation of Alcohols and Recovery of Product” (E. I. DU PONT DE NEMOURS AND COMPANY, priority 2008, published 2010).

Columns and labels:
[1] = Extraction of ethanol from an aqueous solution by ionic liquid (HPLC); type: physicochemical; conditions: ethanol in aqueous solution after mixing 3 mL of about 31 g/L ethanol with 150 microliters (5 vol %) ionic liquid, overnight equilibration, control 655
Description: (§1) Ethanol and isobutanol concentration in the solution was measured using HPLC as described above following thorough mixing and overnight equilibration of the contents of the vial.

[2] = Extraction of isobutanol from an aqueous solution by ionic liquid (HPLC); type: physicochemical; conditions: isobutanol in aqueous solution after mixing 3 mL of about 31 g/L isobutanol with 150 microliters (5 vol %) ionic liquid, overnight equilibration, control 436
Description: as §1

[3] = test system: Saccharomyces cerevisiae (W1362 20A); assay: Glucose Uptake Index of Saccharomyces cerevisiae culture in YPD medium with ionic liquid added; conditions: 5% (v/v) ionic liquid added after 4 h, further 16 h at 30° C., GUI of control without ionic liquid 79.0 (Ex. 1-5) or 100 (Ex. 6-8)

| Compound | GUI of Sample (Glucose Utilization Index in the presence of 5% (v/v) of the ionic liquid phase) [3] | mM Ethanol [1] [mM] | mM isobutanol [2] [mM] | further results |
| --- | --- | --- | --- | --- |
| CCOCC[N+](C)(C)CCN1C(=O)CCC1C (centres unmarked) [Example 3, 1-(N,N,N-dimethyl(ethylethoxy)aminoethyl)-5-methyl-pyrrolidine-2-one bis(trifluoromethane)sulfonamide] | 80.4 | – | – | mM Ethanol ([1]; listed as [MeDMEEAP] [Tf2N]): 637 mM; mM isobutanol ([2]; listed as [MeDMEEAP] [Tf2N]): 398 mM |
| COCC[N+](C)(C)CCN1C(=O)CCC1C (centres unmarked) [Example 4, 1-(N,N,N-dimethyl(methylethoxy)aminoethyl)-5-methylpyrrolidin-2-one hexafluoropropanesulfonate] | 21.9 | 645 | 423 | – |
| COCC[N+](C)(C)CCN1C(=O)CCC1C.O=S(=O)([N-]S(=O)(=O)C(F)(F)F)C(F)(F)F (centres unmarked) [Example 7, 1-(N,N,N-dimethyl(methylethoxy)aminoethyl)-5-methylpyrrolidone-2-one bis(trifluoromethane)sulfonamide] | 100 | 643 | 389 | – |
| CCC[N+](C)(C)CCN1C(=O)CCC1C.O=S(=O)([N-]S(=O)(=O)C(F)(F)F)C(F)(F)F (centres unmarked) [Example 6, 1-(N,N,N-dimethylpropylaminoethyl)-5-methylpyrrolidone-2-one bis(trifluoromethane)sulfonamide] | 100 | – | 387 | – |
| CCOCC[N+](C)(C)CCN1C(=O)CCC1C (centres unmarked) [Example 2, 1-(N,N,N-dimethyl(ethylethoxy)aminoethyl)-5-methyl-pyrrolidine-2-one hexafluoropropanesulfonate] | 34.0 | – | – | mM Ethanol ([1]; listed as [MeDMEEAP] [HFPS]): 656 mM; mM isobutanol ([2]; listed as [MeDMEEAP] [HFPS]): 422 mM |
| CC1CCC(=O)N1CC[N+](C)(C)CCO.O=S(=O)([N-]S(=O)(=O)C(F)(F)F)C(F)(F)F (centres unmarked) [Example 8, 1-(N,N,N-dimethyl(hydroxyethyl)aminoethyl)-5-methylpyrrolidone-2-one bis(trifluoromethane)sulfonamide] | 89.3 | – | 417 | – |
| 1-Butyl-3-methylimidazolium levulinate [Example 5] | – | 596 | – | – |
